From patent US20230024302A1, “2,3,5-TRISUBSTITUTED PYRAZOLO[1,5-A]PYRIMIDINE COMPOUNDS” (Arcus Biosciences, Inc., priority 2019, published 2023) come the findings set out here.

One experiment addresses T1, PI3Kγ (Homo sapiens, UniProt P48736).
T1 construct: host or cells: THP-1
The experiment in a line: PI3Kγ cellular assay in THP-1 cells (AKT pS473 AlphaLISA). It is filed as cell-based. The following applies: Table 1, rhMCP-1 stimulated AKT pS473, read-out: cellular potency (PI3Kγ IC50). On the procedure: Twenty microliters of serum starved THP-1 cells were added to the compound plate in serum free DMEM at a density of 9×10^6 cells per ml. Final assay conditions comprised 1.8×10^5 THP-1 cells per well with test compounds in 2% DMSO across a concentration range from 4 nM to 30 μM. […] Briefly, 10 μL of 4× lysis buffer was added to cells after stimulation. Following 60 min incubation at rt, 10 μL of cell lysate was transferred to a fresh 384-well Opti-plate to which 5 μL of AlphaLisa acceptor beads and 5 μL of AlphaLisa donor beads had been added. […] PI3Kγ activity was evaluated as a correlate of endogenous AKT phosphorylation levels. Percentage maximum activity in each test well was calculated based on DMSO (100% activity) and positive control treated cell wells (0% activity). The potencies (IC50's) of test compounds were determined using a standard 4-parameter fit non-linear regression fit.

In the next experiment the target is T2, PI3Kγ (p120γ) (Homo sapiens, UniProt P48736).
T2 construct: purchased Promega V1761
T2 sequence (P48736 whole entry): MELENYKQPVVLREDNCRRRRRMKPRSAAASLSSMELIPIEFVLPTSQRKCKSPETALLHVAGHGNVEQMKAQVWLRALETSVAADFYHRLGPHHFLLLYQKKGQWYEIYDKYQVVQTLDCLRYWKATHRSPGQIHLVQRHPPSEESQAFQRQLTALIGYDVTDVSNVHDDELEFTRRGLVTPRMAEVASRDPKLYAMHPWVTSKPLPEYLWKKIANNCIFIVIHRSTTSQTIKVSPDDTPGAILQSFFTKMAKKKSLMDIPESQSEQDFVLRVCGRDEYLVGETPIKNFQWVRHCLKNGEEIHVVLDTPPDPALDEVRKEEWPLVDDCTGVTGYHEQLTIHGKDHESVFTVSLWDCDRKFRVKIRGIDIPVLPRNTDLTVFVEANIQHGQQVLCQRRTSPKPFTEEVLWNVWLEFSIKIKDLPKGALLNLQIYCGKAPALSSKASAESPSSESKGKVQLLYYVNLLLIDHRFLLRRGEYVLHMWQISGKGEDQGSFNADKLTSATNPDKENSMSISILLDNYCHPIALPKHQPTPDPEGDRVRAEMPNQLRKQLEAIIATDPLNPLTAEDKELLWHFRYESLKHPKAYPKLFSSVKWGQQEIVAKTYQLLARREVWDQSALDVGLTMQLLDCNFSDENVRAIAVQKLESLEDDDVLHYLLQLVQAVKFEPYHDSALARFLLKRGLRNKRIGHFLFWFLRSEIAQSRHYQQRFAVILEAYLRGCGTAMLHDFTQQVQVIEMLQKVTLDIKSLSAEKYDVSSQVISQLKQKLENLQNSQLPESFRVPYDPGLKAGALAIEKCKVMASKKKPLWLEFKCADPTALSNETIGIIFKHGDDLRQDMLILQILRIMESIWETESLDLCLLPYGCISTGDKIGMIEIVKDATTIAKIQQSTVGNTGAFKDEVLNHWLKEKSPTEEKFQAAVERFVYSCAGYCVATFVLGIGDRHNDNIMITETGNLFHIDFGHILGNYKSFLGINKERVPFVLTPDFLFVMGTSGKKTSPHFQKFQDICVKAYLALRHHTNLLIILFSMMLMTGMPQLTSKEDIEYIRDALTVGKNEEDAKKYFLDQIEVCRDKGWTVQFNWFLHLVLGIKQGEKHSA
Description: Inhibition of PI3K kinase activity (ADP Glo), PI3Kγ. The conditions noted are these: Table 1, p120γ, read-out: biochemical potency (PI3Kγ IC50). As to the method:
Compounds were evaluated to determine the potency with which they inhibited the kinase activity of the Class I PI3K subunits p110α/p85α (Promega, Cat #V1721), p110β/p85α (Promega, Cat #V1751), p120γ (Promega, Cat #V1761) and p110δ/p85α (Promega, Cat #V1771). Activity was determined as a function of ADP (adenosine diphosphate) generated from ATP consumed during the phosphorylation of Phosphatidylinositol 4,5-bisphosphate (PIP2) (Promega, Cat #V1701) to yield Phosphatidylinositol (3,4,5)-trisphosphate (PIP3). ADP levels in the assay mixture at the end of the reaction were quantitated using ADP Glo (Promega, Cat #V9103) according to the manufacturer's recommended protocol.
Enzyme was prepared for each of the PI3K subunits in 100 mM HEPES, pH 7.4, 100 mM NaCl, 6 mM MgCl2 and 0.05% BSA. p110α/p85α was prepared at 2 nM (2×), p110β/p85α was prepared at 7 nM (2×), p120γ was prepared at 8 nM (2×) and p110δ/p85α was prepared at 2 nM (2×). Five microliters of 2× enzyme dilution of each PI3K subunit were added to a 384-well white Opti-plates pre-dispensed with compound and allowed to incubate for 1 h at rt. A substrate mix containing 0.1 mg/ml (2×) of PIP2 and 50 μM (2×) ATP (Promega, Cat #V915) was prepared in 25 mM HEPES and 0.5 mM EGTA. Reactions were initiated by addition of 5 μl of 2× substrate mix to each well of the plates containing various PI3K isoforms and allowed to proceed for 60 min at rt. Ten microliters of ADP Glo reagent 1 were added to the wells of each plate and allowed to incubate at rt for 45 min according to the manufacturer's directions. Following incubation, 20 μl of ADP Glo reagent 2 was added to each plate and allowed to incubate for an additional 45 min. Luminescent signal, generated by ADP Glo, was quantified by reading on a Perkin Elmer Envision multimode reader. Compound potencies (IC50's) were determined using a standard 4-parameter fit non-linear regression fit.
On the technique in general: ADP-Glo first removes unused ATP, then detects ADP through luciferase.

T1 sequence (P48736 whole entry): as above

As usually defined, the IC50 is the point on the concentration scale where inhibition reaches its midpoint. With `C[C@@H](C1CC1)N1Cc2cc(-c3ccn4nc(N)c(C(=O)N[C@H]5CC[C@H](O)C5)c4n3)cc(OC(F)(F)F)c2C1=O` [Example 36, 2-Amino-5-{2-[(1S)-1-cyclopropylethyl]-1-oxo-7-(trifluoromethoxy)-2,3-dihydro-1H-isoindol-5-yl}-N-[(1S,3S)-3-hydroxycyclopentyl]pyrazolo[1,5-a]pyrimidine-3-carboxamide], the half-maximal inhibitory concentration (IC50) on PI3Kγ and on PI3Kγ (p120γ) was less than 100 nM in each case.
In the case of `C[C@@H](C1CC1)N1Cc2cc(-c3ccn4nc(N)c(C(=O)N[C@@H]5CC[C@@H](O)C5)c4n3)cc(OC(F)(F)F)c2C1=O` [Example 37, 2-Amino-5-{2-[(1S)-1-cyclopropylethyl]-1-oxo-7-(trifluoromethoxy)-2,3-dihydro-1H-isoindol-5-yl}-N-[(1R,3R)-3-hydroxycyclopentyl]pyrazolo[1,5-a]pyrimidine-3-carboxamide], the IC50 at PI3Kγ and at PI3Kγ (p120γ) was less than 100 nM throughout.
Take `C[C@@H](C1CC1)N1Cc2cc(-c3ccn4nc(N)c(C(=O)N[C@@H]5COC[C@H]5O)c4n3)cc(OC(F)(F)F)c2C1=O` [Example 38, 2-Amino-5-{2-[(1S)-1-cyclopropylethyl]-1-oxo-7-(trifluoromethoxy)-2,3-dihydro-1H-isoindol-5-yl}-N-[(3R,4S)-4-hydroxyoxolan-3-yl]pyrazolo[1,5-a]pyrimidine-3-carboxamide]: the IC50 on PI3Kγ and at PI3Kγ (p120γ) was less than 100 nM each time.
On to `C[C@@H](C1CC1)N1Cc2cc(-c3ccn4nc(N)c(C(N)=O)c4n3)cc(OC(F)(F)F)c2C1=O` [Example 39, 5-{2-[(S)-1-Cyclopropylethyl]-7-trifluoromethoxy-5-isoindolinoyl}-2-amino-1,4,7a-triaza-3-indenecarboxamide], for which the IC50 at PI3Kγ and on PI3Kγ (p120γ) was less than 100 nM in each case.
Consider `C[C@@H](C1CC1)N1Cc2cc(-c3ccn4nc(N)c(C(=O)Nc5ccncc5)c4n3)cc(OC(F)(F)F)c2C1=O` [Example 40, (S)-2-Amino-5-(2-(1-cyclopropylethyl)-1-oxo-7-(trifluoromethoxy)isoindolin-5-yl)-N-(pyridin-4-yl)pyrazolo[1,5-a]pyrimidine-3-carboxamide], for which the half-inhibitory concentration (IC50) on PI3Kγ and on PI3Kγ (p120γ) was less than 100 nM each time.
Regarding `C[C@@H](C1CC1)N1Cc2cc(-c3ccn4nc(N)c(C(=O)Nc5cccnc5)c4n3)cc(OC(F)(F)F)c2C1=O` [Example 41, (S)-2-Amino-5-(2-(1-cyclopropylethyl)-1-oxo-7-(trifluoromethoxy)isoindolin-5-yl)-N-(pyridin-3-yl)pyrazolo[1,5-a]pyrimidine-3-carboxamide], the IC50 on PI3Kγ and on PI3Kγ (p120γ) was less than 100 nM in each case.
Take `C[C@@H](C1CC1)N1Cc2cc(-c3ccn4nc(N)c(C(=O)Nc5cncc(F)c5)c4n3)cc(OC(F)(F)F)c2C1=O` [Example 42, 2-Amino-5-{2-[(1S)-1-cyclopropylethyl]-1-oxo-7-(trifluoromethoxy)-2,3-dihydro-1H-isoindol-5-yl}-N-(5-fluoropyridin-3-yl)pyrazolo[1,5-a]pyrimidine-3-carboxamide]: the IC50 on PI3Kγ and at PI3Kγ (p120γ) was less than 100 nM throughout.
`COc1cncc(NC(=O)c2c(N)nn3ccc(-c4cc5c(c(OC(F)(F)F)c4)C(=O)N([C@@H](C)C4CC4)C5)nc23)c1` [Example 43, 2-Amino-5-{2-[(1S)-1-cyclopropylethyl]-1-oxo-7-(trifluoromethoxy)-2,3-dihydro-1H-isoindol-5-yl}-N-(5-methoxypyridin-3-yl)pyrazolo[1,5-a]pyrimidine-3-carboxamide]: the IC50 on PI3Kγ and at PI3Kγ (p120γ) was less than 100 nM throughout.
On to `Cc1ncccc1NC(=O)c1c(N)nn2ccc(-c3cc4c(c(OC(F)(F)F)c3)C(=O)N([C@@H](C)C3CC3)C4)nc12` [Example 44, 2-[(S)-1-Cyclopropylethyl]-5-{2-amino-3-[(2-methyl-3-pyridylamino)carbonyl]-1,4,7a-triaza-5-indenyl}-7-trifluoromethoxy-1-isoindolinone], for which the 50% inhibitory concentration (IC50) at PI3Kγ and on PI3Kγ (p120γ) was less than 100 nM each time.
In the case of `Cc1ccc(NC(=O)c2c(N)nn3ccc(-c4cc5c(c(OC(F)(F)F)c4)C(=O)N([C@@H](C)C4CC4)C5)nc23)cn1` [Example 45, 2-[(S)-1-Cyclopropylethyl]-5-{2-amino-3-[(6-methyl-3-pyridylamino)carbonyl]-1,4,7a-triaza-5-indenyl}-7-trifluoromethoxy-1-isoindolinone], the IC50 at PI3Kγ and on PI3Kγ (p120γ) was less than 100 nM in each case.
As for `C[C@@H](C1CC1)N1Cc2cc(-c3ccn4nc(N)c(C(=O)Nc5ccc(N)nc5)c4n3)cc(OC(F)(F)F)c2C1=O` [Example 46, 2-[(S)-1-Cyclopropylethyl]-5-{2-amino-3-[(6-amino-3-pyridylamino)carbonyl]-1,4,7a-triaza-5-indenyl}-7-trifluoromethoxy-1-isoindolinone], the IC50 at PI3Kγ and on PI3Kγ (p120γ) was less than 100 nM each time.
`Cc1ccncc1NC(=O)c1c(N)nn2ccc(-c3cc4c(c(OC(F)(F)F)c3)C(=O)N([C@@H](C)C3CC3)C4)nc12` [Example 47, (S)-2-Amino-5-(2-(1-cyclopropylethyl)-1-oxo-7-(trifluoromethoxy)isoindolin-5-yl)-N-(4-methylpyridin-3-yl)pyrazolo[1,5-a]pyrimidine-3-carboxamide]: the IC50 on PI3Kγ and on PI3Kγ (p120γ) was less than 100 nM throughout.
As to `COc1ccncc1NC(=O)c1c(N)nn2ccc(-c3cc4c(c(OC(F)(F)F)c3)C(=O)N([C@@H](C)C3CC3)C4)nc12` [Example 48, (S)-2-Amino-5-(2-(1-cyclopropylethyl)-1-oxo-7-(trifluoromethoxy)isoindolin-5-yl)-N-(4-methoxypyridin-3-yl)pyrazolo[1,5-a]pyrimidine-3-carboxamide], the IC50 at PI3Kγ and on PI3Kγ (p120γ) was less than 100 nM throughout.
For the compound `C[C@@H](C1CC1)N1Cc2cc(-c3ccn4nc(N)c(C(=O)N[C@H]5CCNC5=O)c4n3)cc(C(F)(F)F)c2C1=O` [Example 49, 2-Amino-5-{2-[(1S)-1-cyclopropylethyl]-1-oxo-7-(trifluoromethyl)-2,3-dihydro-1H-isoindol-5-yl}-N-[(3S)-2-oxopyrrolidin-3-yl]pyrazolo[1,5-a]pyrimidine-3-carboxamide], the half-inhibitory concentration (IC50) on PI3Kγ and on PI3Kγ (p120γ) was less than 100 nM in each case.
For `C[C@H](CO)NC(=O)c1c(N)nn2ccc(-c3cc4c(c(C(F)(F)F)c3)C(=O)N([C@@H](C)C3CC3)C4)nc12` [Example 50, 5-(3-{[(R)-2-Hydroxy-1-methylethylamino]carbonyl}-2-amino-1,4,7a-triaza-5-indenyl)-2-[(S)-1-cyclopropylethyl]-7-(trifluoromethyl)-1-isoindolinone], the concentration for half-maximal inhibition (IC50) at PI3Kγ and at PI3Kγ (p120γ) was less than 100 nM each time.
Take `C[C@@H](C1CC1)N1Cc2cc(-c3ccn4nc(N)c(C(=O)NCCO)c4n3)cc(C(F)(F)F)c2C1=O` [Example 51, 2-[(S)-1-Cyclopropylethyl]-5-{2-amino-3-[(2-hydroxyethylamino)carbonyl]-1,4,7a-triaza-5-indenyl}-7-(trifluoromethyl)-1-isoindolinone]: the IC50 at PI3Kγ and at PI3Kγ (p120γ) was less than 100 nM throughout.
For the compound `C[C@@H](C1CC1)N1Cc2cc(-c3ccn4nc(N)c(C(=O)NCCCO)c4n3)cc(C(F)(F)F)c2C1=O` [Example 52, 2-[(S)-1-Cyclopropylethyl]-5-{2-amino-3-[(3-hydroxypropylamino)carbonyl]-1,4,7a-triaza-5-indenyl}-7-(trifluoromethyl)-1-isoindolinone], the IC50 at PI3Kγ and on PI3Kγ (p120γ) was less than 100 nM in each case.
With `C[C@@H](C1CC1)N1Cc2cc(-c3ccn4nc(N)c(C(=O)NC5COC5)c4n3)cc(C(F)(F)F)c2C1=O` [Example 53, 2-[(S)-1-Cyclopropylethyl]-5-{2-amino-3-[(3-oxetanylamino)carbonyl]-1,4,7a-triaza-5-indenyl}-7-(trifluoromethyl)-1-isoindolinone], the IC50 on PI3Kγ and on PI3Kγ (p120γ) was less than 100 nM each time.
